{"source": "paper PMC5218480", "about": "(PLoS ONE, 2017)", "system": "MV-4-11 cells", "test": "Gene expression microarray analysis (Affymetrix PrimeView) and GSEA", "type": "cell-based, human", "set-up": "RFU PODN (11730768_x_at) / Fold change /veh PODN (11730768_x_at) / RFU LINC00158 (11744669_a_at) / Fold change /veh LINC00158 (11744669_a_at) / RFU DUSP10 (11751237_a_at) / Fold change /veh DUSP10 (11751237_a_at) / RFU ID3 (11757404_x_at) / Fold change /veh ID3 (11757404_x_at) / RFU PLEKHG5 (11737974_s_at) / Fold change /veh PLEKHG5 (11737974_s_at) / RFU LRRC4B (11730491_at) / Fold change /veh LRRC4B (11730491_at) / RFU GIMAP4 (11747438_a_at) / Fold change /veh GIMAP4 (11747438_a_at) / RFU KRT8 (11758183_x_at) / Fold change /veh KRT8 (11758183_x_at) / RFU CNN1 (11734310_a_at) / Fold change /veh CNN1 (11734310_a_at) / RFU VPS37D (11726825_at) / Fold change /veh VPS37D (11726825_at) / RFU C10orf10 (11716522_x_at) / Fold change /veh C10orf10 (11716522_x_at) / RFU KIR2DL2 /// KIR2DL4 /// KIR2DL5A /// KIR2DL5B /// KIR2DS1 /// KIR2DS2 /// KIR2DS3 /// KIR2DS4 /// KIR3DL3 /// KIR3DL3 /// KIR3DS1 (11738374_at) / Fold change /veh KIR2DL2 /// KIR2DL4 /// KIR2DL5A /// KIR2DL5B /// KIR2DS1 /// KIR2DS2 /// KIR2DS3 /// KIR2DS4 /// KIR3DL3 /// KIR3DL3 /// KIR3DS1 (11738374_at) / RFU C1QL1 (11718748_at) / Fold change /veh C1QL1 (11718748_at) / RFU TMPRSS4 (11747572_a_at) / Fold change /veh TMPRSS4 (11747572_a_at) / RFU HAMP (11756126_x_at) / Fold change /veh HAMP (11756126_x_at) / RFU RNFT2 (11725882_a_at) / Fold change /veh RNFT2 (11725882_a_at) / RFU NR4A2 (11747474_a_at) / Fold change /veh NR4A2 (11747474_a_at) / RFU ABCC12 (11746883_a_at) / Fold change /veh ABCC12 (11746883_a_at) / RFU TMEM136 (11760407_x_at) / Fold change /veh TMEM136 (11760407_x_at) / RFU CLDN22 /// WWC2 (11732394_at) / Fold change /veh CLDN22 /// WWC2 (11732394_at) / RFU HLA-DPB1 (11760878_x_at) / Fold change /veh HLA-DPB1 (11760878_x_at) / RFU SPINT1 (11716480_a_at) / Fold change /veh SPINT1 (11716480_a_at) / RFU GAP43 (11754022_s_at) / Fold change /veh GAP43 (11754022_s_at) / RFU A4GNT (11735810_at) / Fold change /veh A4GNT (11735810_at) / RFU PRB3 (11715151_x_at) / Fold change /veh PRB3 (11715151_x_at) / RFU TUBB4B (11761932_at) / Fold change /veh TUBB4B (11761932_at) / RFU CAPN14 (11732068_a_at) / Fold change /veh CAPN14 (11732068_a_at) / RFU TMCC2 (11721928_a_at) / Fold change /veh TMCC2 (11721928_a_at) / RFU IRGQ (11745062_a_at) / Fold change /veh IRGQ (11745062_a_at) / RFU FAM174B (11720279_a_at) / Fold change /veh FAM174B (11720279_a_at) / RFU TMPRSS4 (11748680_a_at) / Fold change /veh TMPRSS4 (11748680_a_at) / RFU FAM212B (11763350_a_at) / Fold change /veh FAM212B (11763350_a_at) / RFU PLEKHG5 (11743358_a_at) / Fold change /veh PLEKHG5 (11743358_a_at) / RFU ZSCAN30 (11745921_a_at) / Fold change /veh ZSCAN30 (11745921_a_at) / RFU CMKLR1 (11741424_a_at) / Fold change /veh CMKLR1 (11741424_a_at) / RFU LOC101060620 /// MAPK8IP1 (11723275_at) / Fold change /veh LOC101060620 /// MAPK8IP1 (11723275_at) / RFU SPTSSB (11747773_x_at) / Fold change /veh SPTSSB (11747773_x_at) / RFU PRSS12 (11739890_at) / Fold change /veh PRSS12 (11739890_at) / RFU BIN1 (11741810_x_at) / Fold change /veh BIN1 (11741810_x_at) / RFU WNT11 (11732464_a_at) / Fold change /veh WNT11 (11732464_a_at) / RFU C10orf10 (11716521_a_at) / Fold change /veh C10orf10 (11716521_a_at) / RFU C5orf56 (11738089_at) / Fold change /veh C5orf56 (11738089_at) / RFU CYB561 (11721691_x_at) / Fold change /veh CYB561 (11721691_x_at) / RFU ANKRD19P (11752326_a_at) / Fold change /veh ANKRD19P (11752326_a_at) / RFU OR2T12 /// OR2T33 /// OR2T8 (11738714_s_at) / Fold change /veh OR2T12 /// OR2T33 /// OR2T8 (11738714_s_at) / RFU VCAN (11748164_a_at) / Fold change /veh VCAN (11748164_a_at) / RFU JSRP1 (11732532_at) / Fold change /veh JSRP1 (11732532_at) / RFU KRTAP10-11 (11738290_x_at) / Fold change /veh KRTAP10-11 (11738290_x_at) / RFU MYO3A (11730013_a_at) / Fold change /veh MYO3A (11730013_a_at) / RFU EBF3 (11725865_a_at) / Fold change /veh EBF3 (11725865_a_at) / RFU CAMK2N1 (11719241_x_at) / Fold change /veh CAMK2N1 (11719241_x_at) / RFU C5orf56 (11738088_a_at) / Fold change /veh C5orf56 (11738088_a_at) / RFU OLFML3 (11715873_a_at) / Fold change /veh OLFML3 (11715873_a_at) / RFU LOC100653217 /// NTM (11731650_a_at) / Fold change /veh LOC100653217 /// NTM (11731650_a_at) / RFU MAPK11 (11762145_a_at) / Fold change /veh MAPK11 (11762145_a_at) / RFU FIZ1 (11724087_x_at) / Fold change /veh FIZ1 (11724087_x_at) / RFU OASL (11726364_x_at) / Fold change /veh OASL (11726364_x_at) / RFU SOX15 (11748057_x_at) / Fold change /veh SOX15 (11748057_x_at) / RFU CD79A (11719716_a_at) / Fold change /veh CD79A (11719716_a_at) / RFU HIST1H1D (11736915_at) / Fold change /veh HIST1H1D (11736915_at) / RFU CASKIN2 (11723855_a_at) / Fold change /veh CASKIN2 (11723855_a_at) / RFU LOC730098 (11760151_x_at) / Fold change /veh LOC730098 (11760151_x_at) / RFU OR4N2 (11742367_at) / Fold change /veh OR4N2 (11742367_at) / RFU PRRT2 (11749266_a_at) / Fold change /veh PRRT2 (11749266_a_at) / RFU SNX32 (11753110_a_at) / Fold change /veh SNX32 (11753110_a_at) / RFU CDHR5 (11726645_a_at) / Fold change /veh CDHR5 (11726645_a_at) / RFU RCAN1 (11760418_a_at) / Fold change /veh RCAN1 (11760418_a_at) / RFU FAM167A (11723789_a_at) / Fold change /veh FAM167A (11723789_a_at) / RFU FAM26E (11764081_at) / Fold change /veh FAM26E (11764081_at) / RFU ISYNA1 (11749810_s_at) / Fold change /veh ISYNA1 (11749810_s_at) / RFU ACY1 (11761880_at) / Fold change /veh ACY1 (11761880_at) / RFU 11764098_at / Fold change /veh 11764098_at / RFU SAMD14 (11745864_x_at) / Fold change /veh SAMD14 (11745864_x_at) / RFU NPB (11741838_a_at) / Fold change /veh NPB (11741838_a_at) / RFU TMPRSS6 (11731388_a_at) / Fold change /veh TMPRSS6 (11731388_a_at) / RFU KRTAP10-2 (11738614_at) / Fold change /veh KRTAP10-2 (11738614_at) / RFU ARHGAP8 /// PRR5-ARHGAP8 (11727945_x_at) / Fold change /veh ARHGAP8 /// PRR5-ARHGAP8 (11727945_x_at) / RFU KRTAP5-7 /// NADSYN1 (11734609_at) / Fold change /veh KRTAP5-7 /// NADSYN1 (11734609_at) / RFU RASL12 (11751679_a_at) / Fold change /veh RASL12 (11751679_a_at) / RFU CDKN2B (11736163_a_at) / Fold change /veh CDKN2B (11736163_a_at) / RFU PRF1 (11729649_at) / Fold change /veh PRF1 (11729649_at) / RFU, ZNF638 /// ZNF638-IT1 / Fold change vs veh, ZNF638 /// ZNF638-IT1 / RFU, PANK3 / Fold change vs veh, PANK3 / RFU, SH3YL1 / Fold change vs veh, SH3YL1 / RFU, ZEB2 / Fold change vs veh, ZEB2 / RFU, NRIP1 / Fold change vs veh, NRIP1 / RFU, PTTG1IP / Fold change vs veh, PTTG1IP / RFU, CAPN2 / Fold change vs veh, CAPN2 / RFU, MED14 / Fold change vs veh, MED14 / RFU, SNORA58 / Fold change vs veh, SNORA58 / RFU, C1orf63 / Fold change vs veh, C1orf63 / RFU, LRRFIP1 / Fold change vs veh, LRRFIP1 / RFU, NDUFAF7 / Fold change vs veh, NDUFAF7 / RFU, SLC12A2 / Fold change vs veh, SLC12A2 / RFU, IBTK / Fold change vs veh, IBTK / RFU, ESF1 / Fold change vs veh, ESF1 / Fold change vs veh, TMEM50B / RFU, TAOK1 / Fold change vs veh, TAOK1 / RFU, ACBD3 / Fold change vs veh, ACBD3 / RFU, TMA16 / Fold change vs veh, TMA16 / RFU, RWDD3 / Fold change vs veh, RWDD3 / RFU, BCAT1 / Fold change vs veh, BCAT1 / RFU, EDEM3 / Fold change vs veh, EDEM3 / RFU, TMEM33 / Fold change vs veh, TMEM33 / RFU, WDR75 / Fold change vs veh, WDR75 / RFU, AHCTF1 / Fold change vs veh, AHCTF1 / RFU, TFRC / Fold change vs veh, TFRC / RFU, ZDHHC17 / Fold change vs veh, ZDHHC17 / RFU, NOM1 / Fold change vs veh, NOM1 / RFU, ARL8B / Fold change vs veh, ARL8B / RFU, ZBTB11 / Fold change vs veh, ZBTB11 / RFU, TAMM41 / Fold change vs veh, TAMM41 / RFU, KIAA1704 /// LOC100996395 / Fold change vs veh, KIAA1704 /// LOC100996395 / RFU, ING1 / Fold change vs veh, ING1 / RFU, TRMT61B / Fold change vs veh, TRMT61B / RFU, FUBP3 / Fold change vs veh, FUBP3 / RFU, TP53 / Fold change vs veh, TP53 / RFU, TNKS2 / Fold change vs veh, TNKS2 / RFU, ZFP14 / Fold change vs veh, ZFP14 / RFU, ACTR2 / Fold change vs veh, ACTR2 / RFU, PPP3R1 / Fold change vs veh, PPP3R1 / RFU, PIK3R1 / Fold change vs veh, PIK3R1 / RFU, HNRNPA1 / Fold change vs veh, HNRNPA1 / RFU, RNF170 / Fold change vs veh, RNF170 / RFU, ZNF28 / Fold change vs veh, ZNF28 / RFU, RNGTT / Fold change vs veh, RNGTT / RFU, OGT / Fold change vs veh, OGT / RFU, BRD1 / Fold change vs veh, BRD1 / RFU, MARS / Fold change vs veh, MARS / RFU, ZNF655 / Fold change vs veh, ZNF655 / RFU, FAHD1 / Fold change vs veh, FAHD1 / RFU, BDP1 / Fold change vs veh, BDP1 / RFU, LRRCC1 / Fold change vs veh, LRRCC1 / RFU, ARID1A / Fold change vs veh, ARID1A / RFU, ZNF146 / Fold change vs veh, ZNF146 / RFU, ZNF330 / Fold change vs veh, ZNF330 / RFU, GPN3 / Fold change vs veh, GPN3 / RFU, C9orf123 / Fold change vs veh, C9orf123 / RFU, N4BP2L2 / Fold change vs veh, N4BP2L2 / RFU, ARFIP1 / Fold change vs veh, ARFIP1 / RFU, FAM179B / Fold change vs veh, FAM179B / RFU, BCL10 / Fold change vs veh, BCL10 / RFU, UHRF1BP1L / Fold change vs veh, UHRF1BP1L / RFU, BET1 / Fold change vs veh, BET1 / RFU, CNOT2 / Fold change vs veh, CNOT2 / RFU, ZNF268 / Fold change vs veh, ZNF268 / Fold change vs veh, ZNF507 / RFU, DGCR2 / Fold change vs veh, DGCR2 / RFU, WDSUB1 / Fold change vs veh, WDSUB1 / Fold change vs veh, HSP90B1 /// MIR3652 / RFU, ADSS / Fold change vs veh, ADSS / RFU, GK / Fold change vs veh, GK / RFU, ZNF148 / Fold change vs veh, ZNF148 / RFU, TAF9 / Fold change vs veh, TAF9 / RFU, SLC1A5 / Fold change vs veh, SLC1A5 / RFU, SLMO2 / Fold change vs veh, SLMO2 / RFU, ABCC4 / Fold change vs veh, ABCC4 / RFU, LOC101060439 /// RAP1B / Fold change vs veh, LOC101060439 /// RAP1B / RFU, RFX7 / Fold change vs veh, RFX7 / RFU, GTPBP10 / Fold change vs veh, GTPBP10 / RFU, CNEP1R1 / Fold change vs veh, CNEP1R1 / RFU, BIVM-ERCC5 /// ERCC5 / Fold change vs veh, BIVM-ERCC5 /// ERCC5 / RFU, ILF3 / Fold change vs veh, ILF3 / RFU 11762660_at / Fold change /veh 11762660_at / RFU VCAN (11757783_s_at) / Fold change /veh VCAN (11757783_s_at) / RFU DDX43 (11728927_at) / Fold change /veh DDX43 (11728927_at) / RFU KRT8 (11758188_x_at) / Fold change /veh KRT8 (11758188_x_at) / RFU NKD1 (11759106_at) / Fold change /veh NKD1 (11759106_at) / RFU SRD5A1 (11742802_a_at) / Fold change /veh SRD5A1 (11742802_a_at) / RFU TPSAB1 /// TPSB2 (11721975_s_at) / Fold change /veh TPSAB1 /// TPSB2 (11721975_s_at) / RFU GSTM3 (11746129_a_at) / Fold change /veh GSTM3 (11746129_a_at) / RFU IL23R (11737362_x_at) / Fold change /veh IL23R (11737362_x_at) / RFU TMEM51 (11727254_a_at) / Fold change /veh TMEM51 (11727254_a_at) / RFU PIWIL2 (11732686_x_at) / Fold change /veh PIWIL2 (11732686_x_at) / RFU ORM1 (11744905_x_at) / Fold change /veh ORM1 (11744905_x_at) / RFU CCDC152 (11743942_at) / Fold change /veh CCDC152 (11743942_at) / RFU ECM1 (11717891_a_at) / Fold change /veh ECM1 (11717891_a_at) / RFU IL23R (11748794_a_at) / Fold change /veh IL23R (11748794_a_at) / RFU TNFAIP8L3 (11732012_x_at) / Fold change /veh TNFAIP8L3 (11732012_x_at) / RFU MBOAT4 (11741988_at) / Fold change /veh MBOAT4 (11741988_at) / RFU 11764193_at / Fold change /veh 11764193_at / RFU TMEM53 (11763286_at) / Fold change /veh TMEM53 (11763286_at) / RFU MAGEB2 (11727129_at) / Fold change /veh MAGEB2 (11727129_at) / RFU TMEM200A (11744735_a_at) / Fold change /veh TMEM200A (11744735_a_at) / RFU CCDC152 (11751479_a_at) / Fold change /veh CCDC152 (11751479_a_at) / RFU FAM211A (11726209_a_at) / Fold change /veh FAM211A (11726209_a_at) / RFU RGS16 (11746705_a_at) / Fold change /veh RGS16 (11746705_a_at) / RFU VCAN (11755009_s_at) / Fold change /veh VCAN (11755009_s_at) / RFU RHOB (11743442_s_at) / Fold change /veh RHOB (11743442_s_at) / RFU RGS16 (11720943_a_at) / Fold change /veh RGS16 (11720943_a_at) / RFU RGS16 (11720944_at) / Fold change /veh RGS16 (11720944_at) / RFU, VPS4B / Fold change vs veh, VPS4B / RFU, CREB1 / Fold change vs veh, CREB1 / RFU, DNAJC13 / Fold change vs veh, DNAJC13 / RFU, GNAQ / Fold change vs veh, GNAQ / RFU, CDK5R1 / Fold change vs veh, CDK5R1 / RFU, ZRANB3 / Fold change vs veh, ZRANB3 / RFU, CUL4A / Fold change vs veh, CUL4A / RFU, CCNY / Fold change vs veh, CCNY / RFU, UFL1 / Fold change vs veh, UFL1 / RFU, COG3 / Fold change vs veh, COG3 / RFU, DIAPH2 / Fold change vs veh, DIAPH2 / RFU, SKA2 / Fold change vs veh, SKA2 / RFU, AFF3 / Fold change vs veh, AFF3 / RFU, LMF1 / Fold change vs veh, LMF1 / RFU, IPO11 / Fold change vs veh, IPO11 / RFU, DFFB / Fold change vs veh, DFFB / RFU, FOXP1 / Fold change vs veh, FOXP1 / RFU, CARD8 / Fold change vs veh, CARD8 / RFU, STRN3 / Fold change vs veh, STRN3 / RFU, ADK / Fold change vs veh, ADK / RFU, RASSF2 / Fold change vs veh, RASSF2 / RFU, WIPF1 / Fold change vs veh, WIPF1 / RFU, LARP1B / Fold change vs veh, LARP1B / RFU, RASA1 / Fold change vs veh, RASA1 / RFU, RB1 / Fold change vs veh, RB1 / RFU, PPFIA1 / Fold change vs veh, PPFIA1 / RFU, MAT2A / Fold change vs veh, MAT2A / RFU, CCT5 / Fold change vs veh, CCT5 / RFU, WDR92 / Fold change vs veh, WDR92 / RFU, CUX1 / Fold change vs veh, CUX1 / RFU, TTC7A / Fold change vs veh, TTC7A / RFU, TMEM135 / Fold change vs veh, TMEM135 / RFU, DEPTOR / Fold change vs veh, DEPTOR / RFU, CPM / Fold change vs veh, CPM / RFU, DNAJB6 / Fold change vs veh, DNAJB6 / RFU, CACNA2D3 / Fold change vs veh, CACNA2D3 / RFU, DTX4 / Fold change vs veh, DTX4 / RFU, TFCP2 / Fold change vs veh, TFCP2 / RFU, GMCL1 /// GMCL1P1 / Fold change vs veh, GMCL1 /// GMCL1P1 / RFU, AEBP2 / Fold change vs veh, AEBP2 / RFU, SNHG1 /// SNORD22 /// SNORD25 /// SNORD26 /// SNORD27 /// SNORD28 /// SNORD29 /// SNORD31 / Fold change vs veh, SNHG1 /// SNORD22 /// SNORD25 /// SNORD26 /// SNORD27 /// SNORD28 /// SNORD29 /// SNORD31 / Fold change (Aza/veh), C12orf56 (ProbeSet 11735607_a_at) / Fold change (ACY-1035/veh), C12orf56 (ProbeSet 11735607_a_at) / Fold change (Aza/veh), FGFR1OP (ProbeSet 11751329_s_at) / Fold change (ACY-1035/veh), FGFR1OP (ProbeSet 11751329_s_at) / Fold change (Aza/veh), VPS36 (ProbeSet 11739960_a_at) / Fold change (ACY-1035/veh), VPS36 (ProbeSet 11739960_a_at) / RFU SYPL1 (11715823_x_at) / Fold change /veh SYPL1 (11715823_x_at) / RFU IGFBP7 (11715501_s_at) / Fold change /veh IGFBP7 (11715501_s_at) / RFU REEP3 (11722064_at) / Fold change /veh REEP3 (11722064_at) / RFU IGLL1 (11728026_x_at) / Fold change /veh IGLL1 (11728026_x_at): dose or concentration left out as unconfirmed", "conditions": "MV-4-11 cells, 48 hours", "data": [{"smiles": "Nc1ccc(-c2cccs2)cc1NC(=O)c1ccc2c(c1)cc(C1CC1)n2CCN1CCOCC1", "note": "[ACY-1035]", "values": [{"measurement": "Fold change /veh MYO3A (11730013_a_at)", "result": 1.10}]}]}
